Measurements reported in patent publication US20050147565A1, “Pharmaceutical compositions for the treatment of asthma” (Schering Corporation, priority 2001, published 2005).

Experiments:
[1] = Drug Content Uniformity (DCU) through the life of a 120 dose MDI; format: physicochemical; settings: Formoterol/Mometasone 6/50 μg/actuation inhaler
Procedure: The Drug Content Uniformity (DCU) of the inhaler was measured throughout the life of a 120 dose MDI to ascertain whether there was a consistency of dose of the active ingredients throughout the life of the product. Five canisters of each formulation (HFA 227 or HFA 134a) were analyzed and each canister delivered 120 actuations of medication and the amount of actives exiting the inhaler per actuation was measured at varying actuations, e.g., numbers 11, 12, 13, 14, (beginning) 59, 60, 61, 62 (middle) and 117, 118, 119 and 120 (end). Means were determined for the beginning, middle and end actuations, and an overall mean was determined and set forth in Examples 9 and 10 above.

[2] = cited from earlier work
[3] = Andersen Cascade Impactor particle size distribution of the emitted dose of the metered dose inhaler; format: physicochemical; settings: Formoterol/Mometasone 6/50 μg/actuation inhaler
From the text: The formulations of the present invention were further analyzed using an Andersen Cascade Impactor as described in Examples 6 and 7. The Andersen Cascade Impactor is widely used for measuring the particle size distribution of airborne particles and more specifically pharmaceutical aerosols. The eight stage Andersen Impactor separates the sample into nine size intervals when used with a backup filter after the last impaction stage. In FIGS. 1 to 4, this corresponds Stage 0 of particles having a particle size less than 10 μm to a particle size of 0.65-0.43 μm in stage 8, with the final stage corresponding to the filter for particles less than 0.43 μm. The measurement of the particle size at the “throat” in the figures corresponds to the entry port of the Impactor. The fine particle fraction is defined as the percentage of particles having a particle size of less than 4.7 μm. The fine particle dose is defined as the amount in μg per dose that is less than 4.7 μm in size in each actuation. The μg/shot is the total amount of emitted drug product that exits the metered dose inhaler upon actuation. The determination of the particle size distribution of the emitted dose of the formulation using an Andersen Cascade Impactor is known to one of skill in the art.
A formulation containing 6 μg of formoterol fumarate and 50 μg of mometasone furoate using HFA 227 in the absence of a bulking agent or carrier in a metered dose inhaler was analyzed by an Andersen Cascade Impactor to 5 analyze the amount of active drug ingredients and the particle size of the actives exiting the inhaler over time. […] The metered dose for both actives over time was also within acceptable limits (62.9 to 63.3 for mometasone and 6.6 to 6.5 for formoterol at the 4 month point). […]
A formulation containing 6 μg of formoterol fumarate and 50 μg of mometasone furoate using HFA 134a with lactose as a bulking agent in a metered dose inhaler was analyzed by an Andersen Cascade Impactor to analyze the amount of active drug ingredients and the particle size of the actives exiting the inhaler over time. […] Additionally, the metered dose actually delivered was also maintained over time within acceptable limits (64.1 to 63.7 for mometasone, 6.9 to 6.6 for formoterol). The fine particle fraction for both mometasone and formoterol was maintained within acceptable limits.

[4] = HFA 134a, low bulking agent (lactose), 1 Month, 4 C./40 C.
[5] = HFA 134a, low bulking agent (lactose), 1 Month, 40 C./75%
[6] = HFA 134a, low bulking agent (lactose), 3 Month, 4 C./40 C.
[7] = HFA 134a, low bulking agent (lactose), 4 Month, 25 C./60%
[8] = HFA 134a, low bulking agent (lactose), 4 Month, 40 C./75%
[9] = HFA 134a, low bulking agent (lactose), Initial
[10] = HFA 227, without bulking agent, 1 Month, 4 C./40 C.
[11] = HFA 227, without bulking agent, 1 Month, 40 C./75%
[12] = HFA 227, without bulking agent, 3 Month, 4 C./40 C.
[13] = HFA 227, without bulking agent, 4 Month, 25 C./60%
[14] = HFA 227, without bulking agent, 4 Month, 40 C./75%
[15] = HFA 227, without bulking agent, Initial

## COc1ccc(CC(C)NCC(O)c2ccc(O)c(NC=O)c2)cc1.COc1ccc(CC(C)NCC(O)c2ccc(O)c(NC=O)c2)cc1.O.O.O=C(O)/C=C/C(=O)O (racemic) [Formoterol Fumarate, (±)2-hydroxy-5-[(1RS)-1-hydroxy-2-[[(1RS)-2-(4-methoxyphenyly-1methylethyl]-amino]ethyl]formanilide fumarate dihydrate]
[1]; HFA 134a, low bulking agent, 1 Month, 4 C./40 C.
  Overall Mean μg/shot: 5.6 μg/shot
[1]; HFA 134a, low bulking agent, 1 Month, 40 C./75%
  Overall Mean μg/shot: 6.0 μg/shot
[1]; HFA 134a, low bulking agent, Initial
  Overall Mean μg/shot: 6.2 μg/shot
[1]; HFA 227, no bulking agent, 1 Month, 4 C./40 C.
  Overall Mean μg/shot: 5.5 μg/shot
[1]; HFA 227, no bulking agent, 1 Month, 40 C./75%
  Overall Mean μg/shot: 5.7 μg/shot
[1]; HFA 227, no bulking agent, Initial
  Overall Mean μg/shot: 5.7 μg/shot
[2]; acetone
  solubility in acetone: practically insoluble
[2]; diethyl ether
  solubility in diethyl ether: practically insoluble
[2]; ethanol
  solubility in ethanol: sparingly soluble
[2]; ethyl acetate
  solubility in ethyl acetate: practically insoluble
[2]; glacial acetic acid
  solubility in glacial acetic acid: freely soluble
[2]; isopropanol
  solubility in isopropanol: sparingly soluble
[2]; methanol
  solubility in methanol: soluble
[2]; water
  solubility in water: slightly soluble
[3]; [4]
  Fine Particle Dose (μg/shot): 2.0 μg/shot
  Fine Particle Fraction %: 38.0%
  MMAD (microns): 3.1 microns
[3]; [5]
  Fine Particle Dose (μg/shot): 2.1 μg/shot
  Fine Particle Fraction %: 41.3%
  MMAD (microns): 2.9 microns
[3]; [6]
  Fine Particle Dose (μg/shot): 2.2 μg/shot
  Fine Particle Fraction %: 40.2%
  MMAD (microns): 3.2 microns
[3]; [7]
  Fine Particle Dose (μg/shot): 2.3 μg/shot
  Fine Particle Fraction %: 43.6%
  MMAD (microns): 3.0 microns
[3]; [8]
  Fine Particle Dose (μg/shot): 2.1 μg/shot
  Fine Particle Fraction %: 40.3%
  MMAD (microns): 3.1 microns
[3]; [9]
  Fine Particle Dose (μg/shot): 2.4 μg/shot
  Fine Particle Fraction %: 42.5%
  MMAD (microns): 2.9 microns
[3]; [10]
  Fine Particle Dose (μg/shot): 2.2 μg/shot
  Fine Particle Fraction %: 39.0%
  MMAD (microns): 3.3 microns
  μg/shot (metered dose): 6.3 μg/shot
[3]; [11]
  Fine Particle Dose (μg/shot): 2.4 μg/shot
  Fine Particle Fraction %: 41.1%
  MMAD (microns): 3.2 microns
  μg/shot (metered dose): 6.6 μg/shot
[3]; [12]
  Fine Particle Dose (μg/shot): 1.9 μg/shot
  Fine Particle Fraction %: 35.2%
  MMAD (microns): 3.3 microns
  μg/shot (metered dose): 6.3 μg/shot
[3]; [13]
  Fine Particle Dose (μg/shot): 2.6 μg/shot
  Fine Particle Fraction %: 47.3%
  MMAD (microns): 3.2 microns
  μg/shot (metered dose): 6.5 μg/shot
[3]; [14]
  Fine Particle Dose (μg/shot): 2.2 μg/shot
  Fine Particle Fraction %: 40.1%
  MMAD (microns): 3.4 microns
  μg/shot (metered dose): 6.5 μg/shot
[3]; [15]
  Fine Particle Dose (μg/shot): 2.6 μg/shot
  Fine Particle Fraction %: 46.3%
  MMAD (microns): 3.2 microns
  μg/shot (metered dose): 6.6 μg/shot
